Measurements taken from patent US20230312578A1, “6H-INDOLO[2,3-B]QUINOXALINE DERIVATIVES USEFUL IN THERAPY” (Vironova Medical AB, priority 2020, published 2023).

Columns and labels:
Type in all cases: cell-based
[1] = Human tumor cell line growth assay (SRB); details: human, NCI-H23 cells (NSCLC), NCI-H23, 48 h, read-out: LC50
NCI-H23 = test: Human tumor cell line growth assay (SRB); details: Homo sapiens; NSCLC, NCI-H23, 48 h
SF-539 = test: Human tumor cell line growth assay (SRB); details: Homo sapiens; CNS, SF-539, 48 h
[2] = Human tumor cell line growth assay (SRB); details: human, SF-539 cells (CNS), SF-539, 48 h, read-out: LC50
OVCAR-5 = test: Human tumor cell line growth assay (SRB); details: Homo sapiens; Ovarian, OVCAR-5, 48 h
[3] = Human tumor cell line growth assay (SRB); details: human, OVCAR-5 cells (ovarian), OVCAR-5, 48 h, read-out: LC50
K-562 = test: Human tumor cell line growth assay (SRB); details: K562, Leukemia, K-562, 48 h; for CC50: read-out: LC50 (the source's name)
[4] = Human tumor cell line growth assay (SRB); details: human, UACC-257 cells (melanoma), UACC-257, 48 h, read-out: LC50
UACC-257 = test: Human tumor cell line growth assay (SRB); details: Homo sapiens; Melanoma, UACC-257, 48 h
HS 578T = test: Human tumor cell line growth assay (SRB); details: Breast, 48 h; for CC50: read-out: LC50 (the source's name)
CAKI-1 = test: Human tumor cell line growth assay (SRB); details: Renal, CAKI-1, 48 h; for CC50: read-out: LC50 (the source's name)
[5] = Human tumor cell line growth assay (SRB); details: human, NCI-H226 cells (NSCLC), NCI-H226, 48 h, read-out: LC50
NCI-H226 = test: Human tumor cell line growth assay (SRB); details: Homo sapiens; NSCLC, NCI-H226, 48 h
COLO 205 = test: Human tumor cell line growth assay (SRB); details: Homo sapiens; Colon, COLO 205, 48 h
[6] = Human tumor cell line growth assay (SRB); details: human, COLO 205 cells (colon), COLO 205, 48 h, read-out: LC50
SK-MEL-2 = test: Human tumor cell line growth assay (SRB); details: Homo sapiens; Melanoma, SK-MEL-2, 48 h
[7] = Human tumor cell line growth assay (SRB); details: human, SK-MEL-2 cells (melanoma), SK-MEL-2, 48 h, read-out: LC50
[8] = Human tumor cell line growth assay (SRB); details: human, NCI-H460 cells (NSCLC), NCI-H460, 48 h, read-out: LC50
NCI-H460 = test: Human tumor cell line growth assay (SRB); details: Homo sapiens; NSCLC, NCI-H460, 48 h
[9] = Human tumor cell line growth assay (SRB); details: human, M14 cells (melanoma), M14, 48 h, read-out: LC50
M14 = test: Human tumor cell line growth assay (SRB); details: Homo sapiens; Melanoma, M14, 48 h
MDA-MB-231/ATCC = test: Human tumor cell line growth assay (SRB); details: Breast, 48 h; for CC50: read-out: LC50 (the source's name)
UACC-62 = test: Human tumor cell line growth assay (SRB); details: Homo sapiens; Melanoma, UACC-62, 48 h
[10] = Human tumor cell line growth assay (SRB), summary over the panel; details: human, human tumor cell line panel (most cell lines of the panel); for most cell lines of the panel; read-out: LC50
[11] = Human tumor cell line growth assay (SRB); details: human, RPMI-8226 cells (leukemia), RPMI-8226, 48 h, read-out: LC50

Cc1cc2nc3c4ccccc4n(CCN(C)C)c3nc2cc1C [B220, 2-(2,3-dimethyl-6H-indolo [2,3-b]quinoxalin-6-yl)-N,N-dimethylethanamine, reference compound]
CC50 at 48 h [1]: 45600 nM
GI50 (NCI-H23): 1870 nM
GI50 (SF-539): 1830 nM
CC50 at 48 h [2]: 15000 nM
GI50 (OVCAR-5): 2100 nM
CC50 at 48 h [3]: 33400 nM
GI50 (K-562): 1990 nM
CC50 (K-562): > 100000 nM
CC50 at 48 h [4]: 5990 nM
GI50 (UACC-257): 1940 nM
GI50 (HS 578T): 1570 nM
CC50 (HS 578T): 67400 nM
GI50 (CAKI-1): 982 nM
CC50 (CAKI-1): > 100000 nM
CC50 at 48 h [5]: > 100000 nM
GI50 (NCI-H226): 2010 nM
GI50 (COLO 205): 1290 nM
CC50 at 48 h [6]: 41000 nM
GI50 (SK-MEL-2): 1900 nM
CC50 at 48 h [7]: 7490 nM
CC50 at 48 h [8]: 37300 nM
GI50 (NCI-H460): 709 nM
CC50 at 48 h [9]: 75100 nM
GI50 (M14): 1510 nM
GI50 (MDA-MB-231/ATCC): 1760 nM
CC50 (MDA-MB-231/ATCC): 54900 nM
GI50 (UACC-62): 1430 nM

Cc1cc2nc3c4cc([N+](=O)[O-])ccc4n(CCN(C)C)c3nc2cc1C [JBA-185, 2-(2,3-dimethyl-9-nitro-6H-indolo[2,3-b]quinoxalin-6-yl)-N,N-dimethylethanamine]
CC50 at 48 h [1]: 22600 nM
GI50 (NCI-H23): 492 nM
GI50 (SF-539): 387 nM
CC50 at 48 h [2]: 18100 nM
GI50 (OVCAR-5): 587 nM
CC50 at 48 h [3]: > 100000 nM
GI50 (K-562): 360 nM
CC50 (K-562): > 100000 nM
CC50 at 48 h [10]: > 100000 nM
CC50 at 48 h [4]: 34400 nM
GI50 (UACC-257): 732 nM
GI50 (HS 578T): 1570 nM
CC50 (HS 578T): > 100000 nM
GI50 (CAKI-1): 251 nM
CC50 (CAKI-1): 7480 nM
CC50 at 48 h [5]: > 100000 nM
GI50 (NCI-H226): 521 nM
GI50 (COLO 205): 360 nM
CC50 at 48 h [6]: > 100000 nM
GI50 (SK-MEL-2): 1040 nM
CC50 at 48 h [7]: 9020 nM
CC50 at 48 h [8]: 26700 nM
GI50 (NCI-H460): 350 nM
CC50 at 48 h [11]: > 100000 nM
CC50 at 48 h [9]: 7280 nM
GI50 (M14): 499 nM
GI50 (MDA-MB-231/ATCC): 495 nM
CC50 (MDA-MB-231/ATCC): > 100000 nM
GI50 (UACC-62): 514 nM

Cc1cc2nc3c4cc(N)ccc4n(CCN(C)C)c3nc2cc1C [JBD-136, 6-(2-(dimethylamino)ethyl)-2,3-dimethyl-6H-indolo [2,3-b]quinoxalin-9-amine]
CC50 at 48 h [1]: 33000 nM
GI50 (NCI-H23): 1080 nM
GI50 (SF-539): 882 nM
CC50 at 48 h [2]: 19500 nM
GI50 (OVCAR-5): 1240 nM
CC50 at 48 h [3]: > 100000 nM
GI50 (K-562): 426 nM
CC50 (K-562): 65600 nM
CC50 at 48 h [4]: 71500 nM
GI50 (UACC-257): 1500 nM
GI50 (HS 578T): 2120 nM
CC50 (HS 578T): > 100000 nM
GI50 (CAKI-1): 427 nM
CC50 (CAKI-1): 85500 nM
CC50 at 48 h [5]: > 100000 nM
GI50 (NCI-H226): 1320 nM
GI50 (COLO 205): 418 nM
CC50 at 48 h [6]: 83600 nM
GI50 (SK-MEL-2): 1630 nM
CC50 at 48 h [7]: 66700 nM
CC50 at 48 h [8]: 36600 nM
GI50 (NCI-H460): 434 nM
CC50 at 48 h [11]: 95200 nM
CC50 at 48 h [9]: 6430 nM
GI50 (M14): 1120 nM
GI50 (MDA-MB-231/ATCC): 1220 nM
CC50 (MDA-MB-231/ATCC): 57500 nM
GI50 (UACC-62): 1180 nM

Cc1cc2nc3c4cc(O)ccc4n(CCN(C)C)c3nc2cc1C [JBD-139, 6-(2-(dimethylamino)ethyl)-2,3-dimethyl-6H-indolo [2,3-b]quinoxalin-9-ol]
GI50 (NCI-H23): 506 nM
GI50 (SF-539): 422 nM
GI50 (OVCAR-5): 867 nM
CC50 at 48 h [3]: > 100000 nM
GI50 (K-562): 338 nM
CC50 (K-562): > 100000 nM
GI50 (UACC-257): 597 nM
GI50 (HS 578T): 1400 nM
CC50 (HS 578T): > 100000 nM
GI50 (CAKI-1): 259 nM
CC50 (CAKI-1): 5310 nM
CC50 at 48 h [5]: 19500 nM
GI50 (NCI-H226): 1340 nM
GI50 (COLO 205): 470 nM
CC50 at 48 h [6]: > 100000 nM
GI50 (SK-MEL-2): 1100 nM
GI50 (NCI-H460): 348 nM
CC50 at 48 h [9]: 5150 nM
GI50 (M14): 378 nM
GI50 (MDA-MB-231/ATCC): 544 nM
GI50 (UACC-62): 479 nM

COc1ccc2c(c1)c1nc3cc(C)c(C)cc3nc1n2CCN(C)C [JBA-094, 2-(9-methoxy-2,3-dimethyl-6H-indolo[2,3-b]quinoxalin-6-yl)-N,N-dimethylethanamine]
CC50 at 48 h [1]: 8200 nM
GI50 (NCI-H23): 973 nM
GI50 (SF-539): 663 nM
CC50 at 48 h [2]: 5200 nM
GI50 (OVCAR-5): 1120 nM
CC50 at 48 h [3]: 5280 nM
GI50 (K-562): 444 nM
CC50 (K-562): > 100000 nM
CC50 at 48 h [4]: 7970 nM
GI50 (UACC-257): 1500 nM
GI50 (HS 578T): 1930 nM
CC50 (HS 578T): 78700 nM
GI50 (CAKI-1): 541 nM
CC50 (CAKI-1): 4930 nM
CC50 at 48 h [5]: 8200 nM
GI50 (NCI-H226): 1240 nM
GI50 (COLO 205): 561 nM
GI50 (SK-MEL-2): 1710 nM
CC50 at 48 h [7]: 7870 nM
CC50 at 48 h [8]: 4980 nM
GI50 (NCI-H460): 388 nM
CC50 at 48 h [9]: 5890 nM
GI50 (M14): 1120 nM
GI50 (MDA-MB-231/ATCC): 1140 nM
CC50 (MDA-MB-231/ATCC): 6390 nM
GI50 (UACC-62): 898 nM
